Data as given in PubChem BioAssay (NCI).
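Growth conditions: 96-well plates. Treatment: test compound, 48 hours, 5 concentrations. Analysis: linear interpolation between bracketing concentrations; unreached endpoints set to highest concentration. TGI: total growth inhibition.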

Legend:
Assay in all cases: NCI anticancer screen, dose series, 48 h
SK-MEL-5 melanoma = test system: SK-MEL-5 melanoma
U251 CNS = test system: U251 CNS
786-0 renal = test system: 786-0 renal
NCI-H23 lung = test system: NCI-H23 lung
NCI-H522 lung = test system: NCI-H522 lung
OVCAR-4 ovarian = test system: OVCAR-4 ovarian
KM12 colon = test system: KM12 colon
M14 melanoma = test system: M14 melanoma
DMS 114 small cell lung = test system: DMS 114 small cell lung
TK-10 renal = test system: TK-10 renal
LXFL 529 NSCLC = test system: LXFL 529 NSCLC
CCRF-CEM leukemia = test system: CCRF-CEM leukemia
CAKI-1 renal = test system: CAKI-1 renal
RPMI-8226 leukemia = test system: RPMI-8226 leukemia
OVCAR-3 ovarian = test system: OVCAR-3 ovarian
KM20L2 colon = test system: KM20L2 colon
SNB-78 CNS = test system: SNB-78 CNS
A498 renal = test system: A498 renal
OVCAR-8 ovarian = test system: OVCAR-8 ovarian
ACHN renal = test system: ACHN renal
RXF 393 renal = test system: RXF 393 renal
HCT-15 colon = test system: HCT-15 colon
IGROV1 ovarian = test system: IGROV1 ovarian
M19-MEL melanoma = test system: M19-MEL melanoma
K-562 leukemia = test system: K-562 leukemia
DLD-1 colon = test system: DLD-1 colon
UO-31 renal = test system: UO-31 renal
HT29 colon = test system: HT29 colon
SF-539 CNS = test system: SF-539 CNS
SK-OV-3 ovarian = test system: SK-OV-3 ovarian
SK-MEL-2 melanoma = test system: SK-MEL-2 melanoma
NCI-H460 lung = test system: NCI-H460 lung
A549 NSCLC = test system: A549 NSCLC
LOX IMVI melanoma = test system: LOX IMVI melanoma
XF 498 CNS = test system: XF 498 CNS
NCI-H226 lung = test system: NCI-H226 lung
MOLT-4 leukemia = test system: MOLT-4 leukemia
SW-620 colon = test system: SW-620 colon
SN12C renal = test system: SN12C renal
EKVX NSCLC = test system: EKVX NSCLC
SR leukemia = test system: SR leukemia
HOP-92 NSCLC = test system: HOP-92 NSCLC
HOP-62 NSCLC = test system: HOP-62 NSCLC
SNB-19 CNS = test system: SNB-19 CNS
COLO 205 colon = test system: COLO 205 colon
DMS 273 small cell lung = test system: DMS 273 small cell lung
HCT-116 colon = test system: HCT-116 colon
SNB-75 CNS = test system: SNB-75 CNS
UACC-257 melanoma = test system: UACC-257 melanoma
MALME-3M melanoma = test system: MALME-3M melanoma
SF-268 CNS = test system: SF-268 CNS
HCC-2998 colon = test system: HCC-2998 colon
SF-295 CNS = test system: SF-295 CNS
HL-60(TB) leukemia = test system: HL-60(TB) leukemia
HOP-18 NSCLC = test system: HOP-18 NSCLC
UACC-62 melanoma = test system: UACC-62 melanoma
SK-MEL-28 melanoma = test system: SK-MEL-28 melanoma
OVCAR-5 ovarian = test system: OVCAR-5 ovarian
RXF-631 renal = test system: RXF-631 renal

For `N#CNC(=NCc1ccccc1)NCc1ccccc1`, the TGI (SK-MEL-5 melanoma) was greater than 100 µM, the TGI (U251 CNS) was greater than 70.7 µM and the TGI (786-0 renal) was greater than 100 µM. The TGI (NCI-H23 lung) was greater than 100 µM, the TGI (NCI-H522 lung) was greater than 100 µM and the TGI (OVCAR-4 ovarian) was greater than 100 µM. For the same molecule, the TGI (KM12 colon) was greater than 100 µM, the TGI (M14 melanoma) was greater than 100 µM and the TGI (DMS 114 small cell lung) was greater than 53.4 µM. For the same molecule, the TGI (TK-10 renal) was greater than 100 µM, the TGI (LXFL 529 NSCLC) was greater than 100 µM and the TGI (CCRF-CEM leukemia) was greater than 100 µM. The TGI (CAKI-1 renal) was greater than 100 µM, the TGI (RPMI-8226 leukemia) was greater than 100 µM and the TGI (OVCAR-3 ovarian) was greater than 100 µM. The TGI (KM20L2 colon) was greater than 100 µM, the TGI (SNB-78 CNS) was greater than 100 µM and the TGI (A498 renal) was greater than 100 µM. The TGI (OVCAR-8 ovarian) was greater than 100 µM, the TGI (ACHN renal) was greater than 100 µM and the TGI (RXF 393 renal) was greater than 89 µM. The TGI (HCT-15 colon) was greater than 55.8 µM, the TGI (IGROV1 ovarian) was greater than 100 µM and the TGI (M19-MEL melanoma) was greater than 96.3 µM. For the same molecule, the TGI (K-562 leukemia) was greater than 100 µM, the TGI (DLD-1 colon) was greater than 71 µM and the TGI (UO-31 renal) was greater than 100 µM. It also gave a TGI (HT29 colon) greater than 100 µM, a TGI (SF-539 CNS) greater than 100 µM and a TGI (SK-OV-3 ovarian) greater than 100 µM. The TGI (SK-MEL-2 melanoma) was greater than 100 µM, the TGI (NCI-H460 lung) was greater than 100 µM and the TGI (A549 NSCLC) was greater than 100 µM. The TGI (LOX IMVI melanoma) was greater than 100 µM, the TGI (XF 498 CNS) was greater than 100 µM and the TGI (NCI-H226 lung) was greater than 100 µM. For the same molecule, the TGI (MOLT-4 leukemia) was greater than 100 µM, the TGI (SW-620 colon) was greater than 62.7 µM and the TGI (SN12C renal) was greater than 100 µM. For the same molecule, the TGI (EKVX NSCLC) was greater than 100 µM, the TGI (SR leukemia) was 69 µM and the TGI (HOP-92 NSCLC) was greater than 100 µM. It also gave a TGI (HOP-62 NSCLC) greater than 100 µM, a TGI (SNB-19 CNS) greater than 100 µM and a TGI (COLO 205 colon) greater than 57.3 µM. The TGI (DMS 273 small cell lung) was greater than 56 µM, the TGI (HCT-116 colon) was 33.6 µM and the TGI (SNB-75 CNS) was greater than 100 µM. It also gave a TGI (UACC-257 melanoma) greater than 100 µM, a TGI (MALME-3M melanoma) greater than 100 µM and a TGI (SF-268 CNS) of 48.6 µM. It also gave a TGI (HCC-2998 colon) greater than 100 µM, a TGI (SF-295 CNS) greater than 100 µM and a TGI (HL-60(TB) leukemia) greater than 100 µM. The TGI (HOP-18 NSCLC) was greater than 100 µM, the TGI (UACC-62 melanoma) was greater than 100 µM and the TGI (SK-MEL-28 melanoma) was greater than 100 µM. For the same molecule, the TGI (OVCAR-5 ovarian) was greater than 100 µM.

`CN(C)[C@@H]1C(=O)C(C(=O)NCN2CCN(C(=N)N=C(N)N)CC2)=C(O)[C@@]2(O)C(=O)C3=C(O)c4c(O)cccc4[C@@](C)(O)[C@H]3C[C@@H]12` showed a TGI (SK-MEL-5 melanoma) of 0.431 µM, a TGI (U251 CNS) of 0.809 µM and a TGI (NCI-H23 lung) of 0.33 µM. For the same molecule, the TGI (NCI-H522 lung) was 0.143 µM, the TGI (KM12 colon) was 16.9 µM and the TGI (M14 melanoma) was 1.14 µM. For the same molecule, the TGI (TK-10 renal) was 14.8 µM, the TGI (LXFL 529 NSCLC) was 11.1 µM and the TGI (CCRF-CEM leukemia) was greater than 100 µM. The TGI (CAKI-1 renal) was greater than 100 µM, the TGI (RPMI-8226 leukemia) was 14.7 µM and the TGI (OVCAR-3 ovarian) was 34.8 µM. For the same molecule, the TGI (KM20L2 colon) was 11.6 µM, the TGI (SNB-78 CNS) was 0.471 µM and the TGI (A498 renal) was 4.88 µM. For the same molecule, the TGI (OVCAR-8 ovarian) was 11.2 µM, the TGI (ACHN renal) was greater than 100 µM and the TGI (RXF 393 renal) was 0.245 µM. The TGI (HCT-15 colon) was 12.2 µM, the TGI (IGROV1 ovarian) was 22 µM and the TGI (M19-MEL melanoma) was 2.28 µM. The TGI (K-562 leukemia) was 10.5 µM, the TGI (DLD-1 colon) was 19.6 µM and the TGI (RXF-631 renal) was 0.763 µM. It also gave a TGI (UO-31 renal) of 0.982 µM, a TGI (HT29 colon) of 16.7 µM and a TGI (SF-539 CNS) of 0.415 µM. The TGI (SK-OV-3 ovarian) was 15.8 µM, the TGI (SK-MEL-2 melanoma) was 0.255 µM and the TGI (NCI-H460 lung) was 20.2 µM. For the same molecule, the TGI (LOX IMVI melanoma) was 2.04 µM, the TGI (MOLT-4 leukemia) was 0.349 µM and the TGI (SW-620 colon) was 11 µM. The TGI (SN12C renal) was 15.1 µM, the TGI (EKVX NSCLC) was 0.624 µM and the TGI (SR leukemia) was 2.3 µM. The TGI (HOP-92 NSCLC) was 0.635 µM, the TGI (HOP-62 NSCLC) was 3.99 µM and the TGI (SNB-19 CNS) was 15.9 µM. It also gave a TGI (COLO 205 colon) of 14.1 µM, a TGI (DMS 273 small cell lung) of 0.922 µM and a TGI (HCT-116 colon) of 17.8 µM. It also gave a TGI (SNB-75 CNS) of 0.338 µM, a TGI (UACC-257 melanoma) of 6.29 µM and a TGI (MALME-3M melanoma) of 0.566 µM. It also gave a TGI (SF-295 CNS) of 6.82 µM, a TGI (SK-MEL-28 melanoma) of 0.541 µM and a TGI (OVCAR-5 ovarian) of 0.709 µM.

`[N-]=[N+]=Nc1ncnc2c1sc(=S)n2-c1ccccc1` showed a TGI (SK-MEL-5 melanoma) greater than 100 µM, a TGI (U251 CNS) greater than 100 µM and a TGI (786-0 renal) greater than 100 µM. The TGI (NCI-H23 lung) was greater than 100 µM, the TGI (NCI-H522 lung) was greater than 100 µM and the TGI (OVCAR-4 ovarian) was greater than 100 µM. The TGI (KM12 colon) was greater than 100 µM, the TGI (M14 melanoma) was greater than 100 µM and the TGI (DMS 114 small cell lung) was greater than 100 µM. The TGI (TK-10 renal) was greater than 100 µM, the TGI (LXFL 529 NSCLC) was greater than 100 µM and the TGI (CCRF-CEM leukemia) was greater than 100 µM. It also gave a TGI (CAKI-1 renal) greater than 100 µM, a TGI (RPMI-8226 leukemia) greater than 100 µM and a TGI (OVCAR-3 ovarian) greater than 100 µM. It also gave a TGI (KM20L2 colon) greater than 100 µM, a TGI (SNB-78 CNS) greater than 100 µM and a TGI (A498 renal) greater than 100 µM. It also gave a TGI (OVCAR-8 ovarian) greater than 100 µM, a TGI (ACHN renal) greater than 100 µM and a TGI (RXF 393 renal) greater than 100 µM. It also gave a TGI (HCT-15 colon) greater than 100 µM, a TGI (IGROV1 ovarian) greater than 100 µM and a TGI (M19-MEL melanoma) greater than 100 µM. For the same molecule, the TGI (K-562 leukemia) was greater than 100 µM, the TGI (DLD-1 colon) was greater than 100 µM and the TGI (UO-31 renal) was greater than 100 µM. It also gave a TGI (HT29 colon) greater than 100 µM, a TGI (SF-539 CNS) greater than 100 µM and a TGI (SK-OV-3 ovarian) greater than 100 µM. For the same molecule, the TGI (SK-MEL-2 melanoma) was greater than 100 µM, the TGI (NCI-H460 lung) was greater than 100 µM and the TGI (A549 NSCLC) was greater than 100 µM. It also gave a TGI (LOX IMVI melanoma) greater than 100 µM, a TGI (XF 498 CNS) greater than 100 µM and a TGI (NCI-H226 lung) greater than 100 µM. It also gave a TGI (MOLT-4 leukemia) greater than 100 µM, a TGI (SW-620 colon) greater than 100 µM and a TGI (SN12C renal) greater than 100 µM. For the same molecule, the TGI (EKVX NSCLC) was greater than 100 µM, the TGI (SR leukemia) was greater than 100 µM and the TGI (HOP-92 NSCLC) was greater than 100 µM. For the same molecule, the TGI (HOP-62 NSCLC) was 52.7 µM, the TGI (SNB-19 CNS) was greater than 100 µM and the TGI (COLO 205 colon) was greater than 100 µM. The TGI (DMS 273 small cell lung) was greater than 100 µM, the TGI (HCT-116 colon) was greater than 100 µM and the TGI (SNB-75 CNS) was greater than 100 µM. It also gave a TGI (UACC-257 melanoma) greater than 100 µM, a TGI (MALME-3M melanoma) greater than 100 µM and a TGI (SF-268 CNS) greater than 100 µM. It also gave a TGI (HCC-2998 colon) greater than 100 µM, a TGI (SF-295 CNS) greater than 100 µM and a TGI (HL-60(TB) leukemia) greater than 100 µM. For the same molecule, the TGI (HOP-18 NSCLC) was greater than 100 µM, the TGI (UACC-62 melanoma) was greater than 100 µM and the TGI (SK-MEL-28 melanoma) was greater than 100 µM. The TGI (OVCAR-5 ovarian) was greater than 100 µM.
